From US7186534B1 (The Trustees of Columbia University in the City of New York, priority 1997, dated 2007) come the findings set out here.

Holding throughout (assay type): biochemical
Assay [1] deals with T1, human 9cRDH (h9cRDH) (Homo sapiens, UniProt Q92781).
T1 sequence (Q92781 1-318): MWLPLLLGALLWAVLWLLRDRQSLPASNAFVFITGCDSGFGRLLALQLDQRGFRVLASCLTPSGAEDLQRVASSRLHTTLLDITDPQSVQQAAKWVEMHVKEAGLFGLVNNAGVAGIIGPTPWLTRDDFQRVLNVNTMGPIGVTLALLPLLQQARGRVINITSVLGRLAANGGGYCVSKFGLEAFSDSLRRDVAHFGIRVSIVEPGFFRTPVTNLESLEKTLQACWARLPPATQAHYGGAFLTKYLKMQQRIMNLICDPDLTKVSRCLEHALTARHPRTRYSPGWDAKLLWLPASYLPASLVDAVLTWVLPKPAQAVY
Briefly: Retinaldehyde isomer reduction by recombinant human 9cRDH. Conditions: substrate 10 μM, 15 min, 150–180 μg protein/assay, NADH, pH 5.0. The protocol: (§1) Enzymatic Assays. Assays for human and mouse 9cRDH were carried out essentially as were described previously for human 9cRDH (19). For expression of mouse 9cRDH a cDNA clone obtained from a mouse liver cDNA library was employed (see below). Recombinant human or mouse 9cRDH expressed in CHO cells was incubated in an assay mixture containing 10 μM 9-cis-retinol (added in 0.02 mL ethanol) and 2 mM NAD in 10 mM Hepes, pH 8.0, containing 150 mM KCl, 1 mM EDTA, and 50 μg phosphotidyl choline for 15 min at 37° C. (final assay volume of 0.6 ml) with agitation. This assay mixture was used routinely to measure oxidation of 9-cis-retinol to 9-cis-retinaldehyde and in studies assessing oxidation of 11-cis-, 13-cis- and all-trans-retinol to their corresponding aldehydes. For some experiments, the ability of human or mouse 9cRDH to catalyze the reduction of 9-cis-, 11-cis-, 13-cis- or all-trans-retinaldehyde was assessed. To assess these reduction reactions, incubations were carried out in 100 mM sodium acetate, pH 5.0, containing 50 μg phosphotidyl choline and 2 mM NADH (or 2 mM NADPH) in a final volume of 0.6 ml for 15 min at 37° C.
(§2) Immediately following incubation of the assay, the assay mixture was denatured with an equal volume of absolute ethanol (0.6 ml), and the retinoids extracted into 2.5 ml of hexane. Following one backwash of the hexane extract with 0.5 ml of deionized water, the hexane was evaporated to dryness under a gentle stream of N2. The extracted retinoids were immediately redissolved in 120 μl of hexane and analyzed by normal phase HPLC as described below.

Assay [2] addresses T2, mouse 9cRDH (m9cRDH) (Mus musculus, UniProt O55240).
T2 sequence (O55240 1-318): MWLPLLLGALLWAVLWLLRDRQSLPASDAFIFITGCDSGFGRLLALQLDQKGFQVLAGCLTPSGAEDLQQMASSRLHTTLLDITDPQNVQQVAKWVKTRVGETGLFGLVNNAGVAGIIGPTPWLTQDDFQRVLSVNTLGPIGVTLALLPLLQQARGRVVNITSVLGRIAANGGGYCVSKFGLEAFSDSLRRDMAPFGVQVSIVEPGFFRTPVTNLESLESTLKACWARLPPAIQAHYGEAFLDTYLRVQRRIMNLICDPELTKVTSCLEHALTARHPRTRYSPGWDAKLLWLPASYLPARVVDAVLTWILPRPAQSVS
In words: Retinaldehyde isomer reduction by recombinant mouse 9cRDH. The conditions noted are these: substrate 10 μM, 15 min, 150–180 μg protein/assay, NADH, pH 5.0. The protocol: as §1, §2

For assay [3], the target named is T1, human 9cRDH (h9cRDH). In words: Retinol isomer oxidation by recombinant human 9cRDH (substrate and cofactor specificity). The protocol:
Enzymatic Assay of Retinol Dehydrogenase Activity. Transfected CHO cell pellets were homogenized in PBS at 4° C. using 50 strokes of a Dounce homogenizer For assay of retinol dehydrogenase activity, aliquots of unfractionated CHO cell homogenate were incubated with 10, μM retinol (either as the all-trans, 13-cis, or 9-cis isomer added in ethanol) and either 2 mM NAD+ or 2 mM NADP+ in 10 mM Hepes containing 150 mM KCl, 1 mM EDTA, and 10, μg/ml phosphotidyl choline at pH 8.0 and 37° C. for prechosen time intervals. The final assay volume was 0.6 ml. Assays were routinely carried out in amber glass tubes that had been flushed with N2 to shield the retinoids from both light and O2 All subsequent extractions and procedures were carried out in a manner that minimized exposure of the retinoids to light and O2.
Immediately following incubation, the assay mixture was denatured with an equal volume of absolute ethanol (0.6 ml), and the retinoids were extracted into 3 ml of HPLC grade hexane. Following one backwash of the hexane extract with 0.5 ml of deionized water, the hexane was evaporated to dryness under a gentle stream of N2, and the extracted retinoids were immediately redissolved in 120 μl of hexane and analyzed by normal phase HPLC (see below).
HPLC Procedures. Stereoisomers of both retinol and retinaldehyde were separated on a 4.6×250-mm Vydac 101HS54 silica column using hexane:n-propanol:1-octanol (98.9:1.0:0.1 v/v) flowing at 1.5 ml/min as the mobile phase. The running column was preceded by a silica guard column. Retinols and retinaldehydes were detected by UV absorbance at 350 nm. Retention times for all-trans-, 13-cis-, and 9-cis-retinols were established using purified compounds obtained as described above. Retention times for all-trans-, 13-cis-, and 9-cis-retinaldehyde were determined using commercial standards (Sigma). Quantities of each retinol and retinaldehyde isomer present in extracts were determined by comparisons of the integrated areas under the HPLC peaks with a standard curve constructed relating integrated peak area with known masses of each retinoid isomer. The concentrations of each retinoid isomer were determined by UV-visible spectrophotometry using published extinction coefficients for each retinol and retinaldehyde isomer (26).
as §1, §2

In assay [4] the target is T2, mouse 9cRDH (m9cRDH). In words: Retinol isomer oxidation by recombinant mouse 9cRDH. The protocol: as §1, §2
The target of assay [5] is T3, mouse 9cRDH (Mus musculus, UniProt O55240).
T3 sequence (O55240 1-318): T2 sequence (O55240 1-318)
In words: Inhibition of recombinant mouse 9cRDH activity (9-cis-retinol oxidation, CHO cell homogenate, HPLC).

Assay [6] concerns the target T4, human 9-cis retinol dehydrogenase (9cRDH) (Homo sapiens, UniProt Q92781).
T4 sequence (Q92781 1-318): T1 sequence (Q92781 1-318)
Briefly: Inhibition of recombinant human 9cRDH activity (9-cis-retinol oxidation, CHO cell homogenate, HPLC). The conditions noted are these: for inhibition of human 9cRDH activity (in words): 10 μM 9-cis-retinol.

For another assay, the target named is T5, human 9cRDH (Homo sapiens, UniProt Q92781).
T5 sequence (Q92781 1-318): T1 sequence (Q92781 1-318)
In words: Hydroxysteroid oxidation/reduction by human 9cRDH (TLC). The conditions noted are these: 37° C., 1.5 h; TLC detection limit approximately 3 pmol/min/mg protein. The protocol:
(§3) To investigate whether human or mouse 9cRDH will catalyze oxidations or reductions of 3α-hydroxy-, 11β-hydroxy- or 17β-hydroxysteroids, these steroids were incubated at 37° C. for 1.5 h in the assay media described above for assessing oxidation/reduction of 9-cis-retinol/9-cis-retinaldehyde. The Hepes NAD^+-containing assay buffer described above was employed to assess hydroxysteroid oxidation and to assess hydroxysteroid reduction the acetate buffer containing NADH (or NADPH) assay buffer (see above) was employed. Immediately following incubation, the steroids were extracted as described above for retinoids. The final hexane extract was evaporated to near dryness and this was spotted onto a silica high performance TLC plate (Whatman Inc., Clifton, N.J.) and developed in hexane/diethyl ether/acetic acid (70:30:1, v/v) or ethyl acetate/chloroform (25:75, v/v). Steroids were visualized by charring after treatment of the TLC plates with an areosol of 10% (v/v) H2SO4 in methanol.
(§4) Biswas and Russell (32) have reported that rat liver all-trans-retinol dehydrogenase type I also uses several 3α-hydroxy- and 17β-hydroxysteroids as substrates. Chai et al. (18) also reported that hydroxysteroids are substrates for mouse liver cis-retinol dehydrogenase. Since human 9cRDH is approximately 50% identical to the rat liver enzymes and shares approximately 63% homology to mouse liver cis-retinol dehydrogenase, next investigated was whether these steroids might also be substrates for 9cRDH. To test this possibility it was determined whether human or mouse 9cRDH would catalyze oxidation of 5α-androstan-3α, 17β-diol, androsterone, testosterone or dihydrotestosterone to corresponding ketone products. Also investigated was whether human and/or mouse 9cRDH could catalyze reduction of the corresponding ketones. […] It is estimate, based on the lower limits for hydroxysteroid detection by TLC, that it would be possible to detect rates of hydroxysteroid oxidation as low as approximately 3 pmol/min/mg protein. This rate of hydroxysteroid oxidation is at least 2-orders of magnitude lower than Vmax values reported by Biswas and Russell (32) and Chai et al. (18) for oxidation of hydroxysteroids in their studies of enzymes that are able to oxidize both retinol and hydroxysteroids.

The target in assay [7] is T3, mouse 9cRDH. Briefly: Hydroxysteroid oxidation/reduction by mouse 9cRDH (TLC). The conditions noted are these: 37° C., 1.5 h; TLC detection limit approximately 3 pmol/min/mg protein. The protocol:
as §3, §4

Setting [8] is: substrate 10 μM, 15 min, 150–180 μg protein/assay, NAD+.
The mark [9] stands for this setting: equimolar concentrations, any substrate.

“Also recorded” adds a separate entry of the source. Where only a bound is given, the exact number is not on record here.

For `CC1=C(/C=C/C(C)=C/C=C/C(C)=C\C=O)C(C)(C)CCC1` [13-cis-retinaldehyde], the “h9cRDH specific activity, retinaldehyde reduction” value at human 9cRDH (h9cRDH) [1] turned out to be 744 pmol/min/mg protein. For the same molecule, the “m9cRDH specific activity, retinaldehyde reduction” value at mouse 9cRDH (m9cRDH) [2] was found to be 748 pmol/min/mg protein.

For the molecule `CC1=C(/C=C/C(C)=C/C=C/C(C)=C/CO)C(C)(C)CCC1` [all-trans Retinol, All-trans-retinol], the “oxidation to the corresponding retinaldehyde by transfected CHO cell homogenate (in words)” value on human 9cRDH (h9cRDH) [3] (2 mM NAD+) is given as “unable to catalyze the oxidation”. Moreover, the “h9cRDH specific activity, retinol oxidation” value at human 9cRDH (h9cRDH) [3] (setting [8]) stood at 0.5 pmol/min/mg protein. The “m9cRDH specific activity, retinol oxidation” value on mouse 9cRDH (m9cRDH) [4] (setting [8]) is recorded as 0.6 pmol/min/mg protein. For the same molecule, the “inhibition of mouse 9cRDH activity (in words)” value at mouse 9cRDH [5] (10 μM 9-cis-retinol) is listed as “only very weak inhibitors”. The results for the “inhibition of human 9cRDH activity (in words)” value in assay [6] (listed as all-trans retinol) and in assay [6] (listed as all-trans-retinol) were “did not inhibit” and “only very weak inhibitors; also recorded: did not inhibit”, respectively.

Consider `CC1=C(/C=C/C(C)=C\C=C\C(C)=C\C=O)C(C)(C)CCC1` [9-cis-retinaldehyde], for which the “h9cRDH specific activity, retinaldehyde reduction” value at human 9cRDH (h9cRDH) [1] is listed as 268 pmol/min/mg protein. The “m9cRDH specific activity, retinaldehyde reduction” value at mouse 9cRDH (m9cRDH) [2] is on record as 420 pmol/min/mg protein.

Take `NC(=O)c1ccc[n+]([C@@H]2O[C@H](COP(=O)([O-])OP(=O)(O)OC[C@H]3O[C@@H](n4cnc5c(N)ncnc54)[C@H](OP(=O)(O)O)[C@@H]3O)[C@@H](O)[C@H]2O)c1` [NADP+]: the “cofactor activity relative to NAD+ for 9-cis-retinol oxidation” value at human 9cRDH (h9cRDH) [3] (both at 2 mM) was 8%. Moreover, the “reaction rate supported relative to NAD+, human 9cRDH retinol oxidation” value on human 9cRDH (h9cRDH) [3] (setting [9]) was not above 10%. Besides, on mouse 9cRDH (m9cRDH) [4] (setting [9]), the “reaction rate supported relative to NAD+, mouse 9cRDH retinol oxidation” value is given as not above 10%.

For the molecule `C[C@]12CC[C@@H](O)C[C@@H]1CC[C@@H]1[C@@H]2CC[C@]2(C)C(=O)CC[C@@H]12` [androsterone], the “catalysis by human 9cRDH of hydroxysteroid oxidation to ketone products (or reduction of the corresponding ketones)” value at human 9cRDH is on record as “Neither human nor mouse 9cRDH were found to catalyze”. The “catalysis by mouse 9cRDH of hydroxysteroid oxidation to ketone products (or reduction of the corresponding ketones)” value at mouse 9cRDH [7] was “Neither human nor mouse 9cRDH were found to catalyze”. Further, the “inhibition of mouse 9cRDH activity by hydroxysteroids” value on mouse 9cRDH [5] was “none of these hydroxysteroids inhibited”. Moreover, the “inhibition of human 9cRDH activity by hydroxysteroids” value in assay [6] is “none of these hydroxysteroids inhibited”.

Turning to `CC1=C(/C=C/C(C)=C/C=C/C(C)=C/C=O)C(C)(C)CCC1` [all-trans-retinaldehyde], the “h9cRDH specific activity, retinaldehyde reduction” value at human 9cRDH (h9cRDH) [1] is 1.1 pmol/min/mg protein. For the same molecule, on mouse 9cRDH (m9cRDH) [2], the “m9cRDH specific activity, retinaldehyde reduction” value was determined as 1.3 pmol/min/mg protein.
